Measured values: US6215002A, “Pyrrolopyrrolone derivatives as inhibitors of neutrophil elastase” (priority 1996, dated 2001)
Counter-ions that a name gives are not always drawn.

Key:
[1] = target: T1, human neutrophil elastase (Homo sapiens, UniProt P08246); assay: In vitro assay of human neutrophil elastase (HNE); format: biochemical; conditions: 118 nM purified human neutrophil elastase, pH 8.6, 15 min incubation at 30° C., MeO-succinyl-alanyl-alanyl-prolyl-valyl-p-nitroanilide substrate; read-out: HNE IC50
T1 sequence (P08246 30-267): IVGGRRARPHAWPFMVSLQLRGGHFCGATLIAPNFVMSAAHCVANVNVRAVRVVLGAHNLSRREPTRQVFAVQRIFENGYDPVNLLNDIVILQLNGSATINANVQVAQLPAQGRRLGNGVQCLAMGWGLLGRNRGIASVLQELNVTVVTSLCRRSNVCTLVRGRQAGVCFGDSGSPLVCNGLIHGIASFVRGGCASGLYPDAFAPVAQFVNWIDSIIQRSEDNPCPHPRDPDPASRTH
Method in brief: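 Residual activity was taken as the 10 min rate of absorbance rise at 405 nm after adding 0.6 mM MeO-succinyl-AAPV-p-nitroanilide. Curve fitting of activity against concentration gave IC50.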

Intracellular elastase = assay: Oral in vivo model using IL-8 induced lung infiltrates for the assessment of intracellular elastase inhibition (hamster test); conditions: effective dose of less than 40 mg/kg, IL-8 intratracheal
Procedure: An Oral in vivo Model Using IL-8 Induced Lung Infiltrates For the Assessment of Intracellular Elastase Inhibition
Adult hamsters (100-150 g) are randomised into groups (n=4) and fasted overnight. Under gaseous anaesthetic (3% isofluorane) animals are dosed orally with 1 mL/100 g water as vehicle or containing predissolved compounds. Either at the same time, or subsequently under anaesthetic, animals are dosed intratracheally with 1 ug recombinant human IL-8 in 100 uL sterile saline. Six hours after IL-8 dosing animals are sacrificed using intrapertoneal pentobarbitone. The lungs are ravaged with 2×2.5 mL sterile saline and femurs are removed by dissection.
Intracellular elastase is prepared from neutrophils collected by lavage and from femoral bone marrow. This is achieved by sonication of the neutrophils and centrifugation to yield intracellular granules. These are disrupted by freeze/thawing and sonication. Elastase and myeloperoxidase assays are then performed on these samples to assess the efficacy of the compounds and to normalise for neutrophil recovery.

Row | SMILES | IC50 [1] | duration of effect (Intracellular elastase)
1 | CON(C)C/C=C/C(=O)N1CC[C@H]2[C@H]1[C@@H](C(C)C)C(=O)N2S(C)(=O)=O (relative stereo) [Example 147, rel-(3R,3aR,6aS)-3-Isopropyl-1-methanesulfonyl-4-[4-(methoxy-methyl-amino)-but-E2-enoyl]-hexahydro-pyrrolo[3,2-b]pyrrol-2-one hydrochloride] | 96 nM | at least 6 hours
2 | CC(C)[C@H]1C(=O)N(S(C)(=O)=O)[C@H]2CCN(C(=O)/C=C/CN(C)CC(N)=O)[C@H]12 (relative stereo) [Example 150, rel-2-{[(4-(6R-Isopropyl-4-methanesulfonyl-5-oxo-hexahydro-(3aS,6aR)-pyrro[3,2-b]pyrrol-1-yl)-4-oxo-but-2E-enyl]-methyl-amino}-acetamide hydrochloride] | 50 nM | at least 6 hours
3 | CC(C)[C@H]1C(=O)N(S(C)(=O)=O)[C@H]2CCN(C(=O)/C=C/CN3CCN(C)CC3)[C@H]12.Cl (relative stereo) [Example 143, rel-(3R,3aR,6aS)-3-Isopropyl-1-methanesulfonyl-4-[4-(4-methyl-piperazin-1-yl)-but-2E-enoyl]-hexahydro-pyrrolo[3,2-b]pyrrol-2-one hydrochloride] | 33 nM | at least 6 hours
4 | CC(C)[C@H]1C(=O)N(S(C)(=O)=O)[C@H]2CCN(C(=O)c3ccc(CNC4CC4)o3)[C@H]12 (relative stereo) [Example 252, rel-(3R,3aR,6aS)-4-(5-Cyclolpropylaminomethyl-furan-2-carbonyl)-3-isopropyl-1-methanesulfonyl-hexahydro-pyrrolo[3,2-b]pyrrol-2-one hydrochloride] | 14 nM | at least 6 hours
5 | CCC[C@@H]1C(=O)N(S(C)(=O)=O)[C@@H]2CCN(C(=O)CCN3CCCCC3)[C@@H]12.Cl [Example 118, (3S,3aS,6aR)-1-Methanesulfonyl-4-(3-piperidin-1-yl-propionyl)-3-propyl-hexahydro-pyrrolo[3,2-b]pyrrol-2-one hydrochloride] | 73 nM | at least 6 hours
6 | CC(C)[C@H]1C(=O)N(S(C)(=O)=O)[C@H]2CCN(C(=O)/C=C/c3ccc(CN(C)C)cc3)[C@H]12 (relative stereo) [Example 159, hydrochloride] | 17 nM | at least 6 hours
7 | CCC[C@H]1C(=O)N(S(C)(=O)=O)[C@H]2CCN(C(=O)CCCCCN3CCOCC3)[C@H]12.O=C(O)C(O)C(O)C(=O)O (relative stereo) [Example 58, rel-(3R,3aR,6aS)-1-Methanesulfonyl-4-(6-morpholin-4-yl-hexanoyl)-3-propylhexahydro-pyrrolo[3,2-b]pyrrol-2-one 2,3-dihydroxysuccinate] | 72 nM | at least 6 hours
8 | CCC[C@H]1C(=O)N(S(C)(=O)=O)[C@H]2CCN(C(=O)CCCCCN3CCCCCC3)[C@H]12 (relative stereo) [Example 59, hydrochloride] | 39 nM | at least 6 hours
9 | CC(C)[C@H]1C(=O)N(S(C)(=O)=O)[C@H]2CCN(C(=O)/C=C/CNC3CC3)[C@H]12.Cl (relative stereo) [Example 137, rel-(3R,3aR,6aS)-4-(4-Cyclopropylamino-but-2E-enoyl)-3-isopropyl-1-methanesulfonyl-hexahydro-pyrrolo[3,2-b]pyrrol-2-one hydrochloride] | 45 nM | at least 6 hours
10 | CC(C)[C@H]1C(=O)N(S(C)(=O)=O)[C@H]2CCN(C(=O)/C=C/CN3CCOCC3)[C@H]12.Cl (relative stereo) [Example 142, rel-(3R,3aR,6aS)-3-isopropyl-1-methanesulfonyl-4-(4-morpholin-4-yl-but-2E-enoyl)-hexahydro-pyrrolo[3,2-b]pyrrol-2-one hydrochloride] | 55 nM | at least 6 hours
11 | CCC[C@H]1C(=O)N(S(C)(=O)=O)[C@H]2CCN(S(=O)(=O)c3ccc(NC(C)=O)cc3)[C@H]12 (relative stereo) [Example 63, rel-N-[4-(4-Methanesulfonyl-5-oxo-6R-propyl-hexahydro-(3aS,6aR)-pyrrolo[3,2-b]pyrrole-1-sulfonyl)phenyl]-acetamide] | 6 nM | at least 6 hours
12 | CCCN(C)Cc1ccc(C(=O)N2CC[C@H]3[C@H]2[C@@H](C(C)C)C(=O)N3S(C)(=O)=O)cc1.Cl (relative stereo) [Example 181, rel-(3R,3aR,6aS)-3-Isopropyl-1-methanesulfonyl-4-{4-[(methyl-propyl-amino)-methyl]-benzoyl}-hexahydro-pyrrolo[3,2-b]pyrrol-2-one hydrochloride] | 42 nM | at least 6 hours

Second part, led by results:

Row | IC50 [1] | SMILES | duration of effect (Intracellular elastase)
13 | 12 nM | CC(C)[C@H]1C(=O)N(S(C)(=O)=O)[C@H]2CCN(C(=O)c3ccc(CN4CCC5CCCCC5C4)cc3)[C@H]12.Cl (relative stereo) [Example 184, rel-(3R,3aR,6aS)-3-Isopropyl-1-methanesulfonyl-4-[4-(octahydro-isoquinolin-2-ylmethyl)-benzoyl]-hexahydro-pyrrolo[3,2-b]pyrrol-2-one hydrochloride] | at least 6 hours
14 | 50 nM | CC(C)[C@H]1C(=O)N(S(C)(=O)=O)[C@H]2CCN(C(=O)c3cccc(CN4CCCC4)c3)[C@H]12 (relative stereo) [Example 193, rel-(3R,3aR,6aS)-3-Isopropyl-1-methanesulfonyl-4-(3-pyrroidin-1-ylmethyl-benzoyl)-hexahydro-pyrrolo[3,2-b]pyrrol-2-one hydrochloride] | at least 6 hours
15 | 47 nM | CC(C)[C@H]1C(=O)N(S(C)(=O)=O)[C@H]2CCN(C(=O)CCCCCN3CCCCCC3)[C@H]12 (relative stereo) [Example 60, rel-(3R,3aR,6aS)-4-(6-Azepin-1-yl-hexanoyl-3-isopropyl-1-methanesulfonyl)-hexahydro-pyrrolo[3,2-b]pyrrol-2-one hydrochloride] | at least 6 hours
16 | 42 nM | CC(C)[C@H]1C(=O)N(S(C)(=O)=O)[C@H]2CCN(C(=O)c3ccc(CNC4CC4)cc3)[C@H]12.Cl (relative stereo) [Example 180, rel-(3R,3aR,6aS)-4(4-Cyclopropylaminomethyl-benzoyl)-3-isopropyl-1-methanesulfonyl-hexahydro-pyrrolo[3,2-b]pyrrol-2-one hydrochloride] | at least 6 hours
17 | 65 nM | CC(C)[C@H]1C(=O)N(S(C)(=O)=O)[C@H]2CCN(C(=O)c3ccc(CN4CCCC4)cc3)[C@H]12.Cl (relative stereo) [Example 173, rel-(3R,3aR,6aS)-3-Isopropyl-1-methanesulfonyl-4-(4-pyrrolidin-1-ylmethyl-benzoyl)-hexahydro-pyrrolo[3,2-b]pyrrol-2-one hydrochloride] | at least 6 hours
18 | 61 nM | CC(C)[C@H]1C(=O)N(S(C)(=O)=O)[C@H]2CCN(C(=O)c3cccc(CN4CCCCC4)c3)[C@H]12 (relative stereo) [Example 192, rel-(3R,3aR,6aS)-3-Isopropyl-1-methanesulfonyl-4-(3-piperidin-1-ylmethyl-benzoyl)-hexahydro-pyrrolo]3,2-b]pyrrol-2-one hydrochloride] | at least 6 hours
19 | 33 nM | CC(=O)N1CCN(Cc2ccc(C(=O)N3CC[C@H]4[C@H]3[C@@H](C(C)C)C(=O)N4S(C)(=O)=O)cc2)CC1 (relative stereo) [Example 185, rel-(3R,3aR,6aS)-4-[4-Acetyl-piperazin-1-ylmethyl)-benzoyl]-3-isopropyl-1-methanesulfonyl-hexahydro-pyrrolo[3,2-b]pyrrol-2-one hydrochloride] | at least 6 hours
20 | 62 nM | CC(C)[C@H]1C(=O)N(S(C)(=O)=O)[C@H]2CCN(C(=O)c3cccc(CN4CCN(C)CC4)c3)[C@H]12.Cl.Cl (relative stereo) [Example 189, rel-(3R,3aR,6aS)-3-Isopropyl-1-methanesulfonyl-4-[3-(4-methyl-piperazin-1-ylmethyl)-benzoyl]-hexahydro-pyrrolo[3,2-b]pyrrol-2-one dihydrochloride] | at least 6 hours
21 | 60 nM | CC(C)[C@H]1C(=O)N(S(C)(=O)=O)[C@H]2CCN(C(=O)c3ccco3)[C@H]12 (relative stereo) [Example 248, rel-(3R,3aR,6aS)-4-(Furan-2-carbonyl)-3-isopropyl-1-methanesulfonyl-hexahydro-pyrrolo[3,2-b]pyrrol-2-one] | at least 6 hours
22 | 19 nM | CC(C)[C@H]1C(=O)N(S(C)(=O)=O)[C@H]2CCN(C(=O)/C=C/c3ccc(CN4CCCCC4)cc3)[C@H]12.Cl (relative stereo) [Example 158, rel-(3R,3aR,6aS)-3-Isopropyl-1-methanesulfonyl-4-[3-(4-piperidin-1-ylmethyl-phenyl)-(E)-acryloyl]-hexahydro-pyrrolo[3,2-b]pyrrol-2-one hydrochloride] | at least 6 hours
